Drawing on ChEMBL document CHEMBL1773062, “Opioid receptor probes derived from cycloaddition of the hallucinogen natural product salvinorin A” (J Nat Prod, 2011), this text covers Ki, Ratio Ki and Emax for 8 molecules.

In test [1] the target is Mu-type opioid receptor (Homo sapiens, UniProt P35372). The test is described as follows: Displacement of [3H]DAMGO from mu opioid receptor. A general note: Loss of bound radioactivity is the signal in a displacement assay; it reports binding, not function.
Sequence of Mu-type opioid receptor (P35372 whole entry): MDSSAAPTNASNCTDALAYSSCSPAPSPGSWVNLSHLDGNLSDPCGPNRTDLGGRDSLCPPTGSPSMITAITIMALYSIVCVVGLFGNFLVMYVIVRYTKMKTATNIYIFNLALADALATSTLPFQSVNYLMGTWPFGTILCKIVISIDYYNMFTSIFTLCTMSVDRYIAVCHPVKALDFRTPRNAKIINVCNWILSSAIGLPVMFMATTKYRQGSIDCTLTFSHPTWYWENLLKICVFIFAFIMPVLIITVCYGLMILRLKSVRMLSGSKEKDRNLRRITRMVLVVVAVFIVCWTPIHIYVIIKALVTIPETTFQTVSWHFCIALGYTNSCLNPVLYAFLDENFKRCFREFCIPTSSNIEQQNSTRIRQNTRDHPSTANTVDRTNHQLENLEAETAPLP
For test [2], the target named is T1, Kappa-type opioid receptor (Homo sapiens, UniProt P41145). Kind of test: Displacement of [3H]U69593 from kappa opioid receptor.
T1 sequence (P41145 whole entry): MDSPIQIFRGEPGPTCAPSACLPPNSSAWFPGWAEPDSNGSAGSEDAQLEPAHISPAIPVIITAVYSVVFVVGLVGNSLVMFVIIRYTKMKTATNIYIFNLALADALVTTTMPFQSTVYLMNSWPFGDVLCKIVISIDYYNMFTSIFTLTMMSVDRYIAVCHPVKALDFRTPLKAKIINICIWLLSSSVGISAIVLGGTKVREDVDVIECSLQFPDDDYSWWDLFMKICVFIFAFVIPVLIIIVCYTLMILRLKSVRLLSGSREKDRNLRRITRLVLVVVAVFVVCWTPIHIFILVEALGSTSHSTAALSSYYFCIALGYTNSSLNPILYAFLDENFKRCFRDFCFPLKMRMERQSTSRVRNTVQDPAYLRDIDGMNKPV
Test [3] in a line: Selectivity ratio of Ki for mu opioid receptor to Ki for kappa opioid receptor.
The target in test [4] is Delta-type opioid receptor (Homo sapiens, UniProt P41143). Kind of test: Displacement of [3H]DADLE from delta opioid receptor.
Sequence of Delta-type opioid receptor (P41143 whole entry): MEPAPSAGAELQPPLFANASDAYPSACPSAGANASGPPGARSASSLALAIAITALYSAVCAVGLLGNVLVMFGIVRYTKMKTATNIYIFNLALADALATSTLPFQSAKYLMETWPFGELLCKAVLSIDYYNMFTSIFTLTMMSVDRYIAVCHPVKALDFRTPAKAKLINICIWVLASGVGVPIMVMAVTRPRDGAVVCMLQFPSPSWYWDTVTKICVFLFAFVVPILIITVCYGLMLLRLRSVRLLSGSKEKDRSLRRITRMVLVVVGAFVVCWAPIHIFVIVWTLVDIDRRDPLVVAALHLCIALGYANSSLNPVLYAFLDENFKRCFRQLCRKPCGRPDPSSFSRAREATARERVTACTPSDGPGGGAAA
Test [5] in a line: Selectivity ratio of Ki for delta opioid receptor to Ki for kappa opioid receptor.
Test [6] addresses T1, Kappa-type opioid receptor. Kind of test: Agonist activity at kappa opioid receptor assessed as stimulation of [35S]GTPgammaS binding relative to U50488. The test is classed as functional. A general note: GTPγS resists hydrolysis and so accumulates on activated G proteins.

One may read the Ki as the equilibrium dissociation constant of an inhibitor or competing ligand from its target. A low value points to a stronger hold on the target. As to `COC(=O)[C@@H]1C[C@H](OC(C)=O)C(=O)[C@H]2[C@@]1(C)CC[C@H]1C(=O)O[C@H](C3=CC4OC3c3ccccc34)C[C@]21C` (some centres not stated), the Ki in test [1] was > 2.5 µM; in test [2] it was 790 nM; in test [4] it was > 10 µM. The figures for the Ratio Ki in test [3] and in test [5] were > 3 and > 13, respectively.
In the same order, the values of `CCOC(=O)c1ccc([C@@H]2C[C@]3(C)[C@H]4C(=O)[C@@H](OC(C)=O)C[C@@H](C(=O)OC)[C@]4(C)CC[C@H]3C(=O)O2)cc1C(=O)OCC` are > 3 µM, 228 nM, > 5 µM, > 13 and > 22.
Usually Emax stands for the greatest response seen or fitted, relative to the assay's reference. Consider `COC(=O)C1=C(C(=O)OC)C2OC1C=C2[C@@H]1C[C@]2(C)[C@H]3C(=O)[C@@H](OC(C)=O)C[C@@H](C(=O)OC)[C@]3(C)CC[C@H]2C(=O)O1` (some centres not stated), for which the Ki was > 4.8 µM in test [1], 60 nM in test [2] and > 5 µM in test [4]. In addition, in test [6], the Emax stood at 100%. The Ratio Ki is > 80 in test [3] and > 83 in test [5].
Take `COC(=O)c1ccc([C@@H]2C[C@]3(C)[C@H]4C(=O)[C@@H](OC(C)=O)C[C@@H](C(=O)OC)[C@]4(C)CC[C@H]3C(=O)O2)cc1C(=O)OC`: the Ki was > 3 µM in test [1], 286 nM in test [2] and > 5 µM in test [4]. Besides, the Ratio Ki was > 8 in test [3] and > 17 in test [5].
Taken in the same sequence, the figures for `COC(=O)[C@@H]1C[C@H](OC(C)=O)C(=O)[C@H]2[C@@]1(C)CC[C@H]1C(=O)O[C@H](c3ccc4ccccc4c3)C[C@]21C` were > 3 µM, > 8000 nM, > 5 µM, > 0.4 and > 0.6.
On to `CCOC(=O)C1=C(C(=O)OCC)C2OC1C=C2[C@@H]1C[C@]2(C)[C@H]3C(=O)[C@@H](OC(C)=O)C[C@@H](C(=O)OC)[C@]3(C)CC[C@H]2C(=O)O1` (some centres not stated), for which the Ki was > 3.2 µM in test [1], 120 nM in test [2] and 2.26 µM in test [4]. In addition, in test [6], the Emax came out at 90%. For the same molecule, the results for the Ratio Ki in test [3] and in test [5] were > 25 and 19, respectively.
Regarding `COC(=O)[C@@H]1C[C@H](OC(C)=O)C(=O)[C@H]2[C@@]1(C)CC[C@H]1C(=O)O[C@H](C3=CC4OC3C3C5OC(c6c5c5ccccc5c(=O)c5ccccc65)C43)C[C@]21C` (mixture of isomers), the Ki in test [1] is > 2.7 µM; in test [2] it was > 13000 nM; in test [4], > 5.2 µM. For the same molecule, the Ratio Ki in test [3] was > 0.2; in test [5] it was > 17.
Taken in the same sequence, the figures for `COC(=O)[C@@H]1C[C@H](OC(C)=O)C(=O)[C@H]2[C@@]1(C)CC[C@H]1C(=O)O[C@H](C3=CC4OC3C3C4C4OC3(C)c3c4c4ccccc4c(=O)c4ccccc34)C[C@]21C` (some centres not stated) were > 1.7 µM, 290 nM, > 5 µM, > 6 and > 17.
